In ChEMBL document CHEMBL4406902, “Structure-based analysis and biological characterization of imatinib derivatives reveal insights towards the inhibition of wild-type BCR-ABL and its mutants” (Bioorg Med Chem Lett, 2019):

Experiments:
[1] = Inhibition of BCR/Abl P230 mutant (unknown origin) transfected in mouse Ba/F3 cells assessed as inhibition of cell proliferation measured after 72 hrs by CellTiter-Glo luminescent cell viability assay; type: cell-based; conditions: BaF3, 72 h
[2] = Inhibition of BCR/Abl P190 mutant (unknown origin) transfected in mouse Ba/F3 cells assessed as inhibition of cell proliferation measured after 72 hrs by CellTiter-Glo luminescent cell viability assay; type: cell-based; conditions: BaF3, 72 h

Row | SMILES | IC50 [1] [nM] | IC50 [2] [nM]
1 | Cc1cn(-c2cc(NC(=O)c3ccc(C)c(Nc4nccc(-c5cccnc5)n4)c3)cc(C(F)(F)F)c2)cn1 [NILOTINIB] | 19 | 23.2
2 | Cc1ncc(NC(=O)c2ccc(CN3CCN(C)CC3)c(C(F)(F)F)c2)cc1Nc1nccc(-c2cccnc2)n1 [FLUMATINIB] | 10.3 | 13.3
3 | Cc1ccc(NC(=O)c2ccc(CN3CCN(C)CC3)cc2)cc1Nc1nccc(-c2cccnc2)n1 [IMATINIB] | 222 | 346
